# Laboratory results from ChEMBL document CHEMBL1201862, “PubChem BioAssay data set” (2004).
#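 These data come from cells grown in 96-well plates and exposed to compound for 48 hours at five concentrations. At the GI50, growth is halved.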 Active and inactive are the calls of the source. Rule as the data show it: active = GI50 up to about 1.1 µM and inactive = higher.
# Key:
# Assay in all cases: NCI tumour cell line growth inhibition, 48 h
# 786-0 = test system: 786-0
# A549 = test system: A549
# ACHN = test system: ACHN
# CAKI-1 = test system: CAKI-1
# CCRF-CEM = test system: CCRF-CEM
# DLD-1 = test system: DLD-1
# DMS-273 = test system: DMS-273
# EKVX = test system: EKVX
# HCT-116 = test system: HCT-116
# HCT-15 = test system: HCT-15
# HL-60 = test system: HL-60
# HOP-92 = test system: HOP-92
# HT-29 = test system: HT-29
# IGROV-1 = test system: IGROV-1
# K562 = test system: K562
# KM-20L2 = test system: KM-20L2
# KM12 = test system: KM12
# LOX IMVI = test system: LOX IMVI
# LXFL 529 = test system: LXFL 529
# M14 = test system: M14
# M19-MEL = test system: M19-MEL
# MOLT-4 = test system: MOLT-4
# Malme-3M = test system: Malme-3M
# NCI-H226 = test system: NCI-H226
# NCI-H23 = test system: NCI-H23
# NCI-H522 = test system: NCI-H522
# OVCAR-3 = test system: OVCAR-3
# RPMI-8226 = test system: RPMI-8226
# RXF 631 = test system: RXF 631
# SF-268 = test system: SF-268
# SF-295 = test system: SF-295
# SF-539 = test system: SF-539
# SK-MEL-28 = test system: SK-MEL-28
# SK-MEL-2 = test system: SK-MEL-2
# SK-OV-3 = test system: SK-OV-3
# SN12C = test system: SN12C
# SNB-19 = test system: SNB-19
# SNB-75 = test system: SNB-75
# SNB-78 = test system: SNB-78
# SR = test system: SR
# SW-620 = test system: SW-620
# TK-10 = test system: TK-10
# U-251 = test system: U-251
# UACC-257 = test system: UACC-257
# UACC-62 = test system: UACC-62
# UO-31 = test system: UO-31
# XF498 = test system: XF498
# COLO 205 = test system: COLO 205
# DMS-114 = test system: DMS-114
# HCC 2998 = test system: HCC 2998
# HOP-18 = test system: HOP-18
# HOP-62 = test system: HOP-62
# NCI-H460 = test system: NCI-H460
# OVCAR-4 = test system: OVCAR-4
# OVCAR-5 = test system: OVCAR-5
# RXF 393 = test system: RXF 393
# SK-MEL-5 = test system: SK-MEL-5
# A498 = test system: A498
# OVCAR-8 = test system: OVCAR-8
compound,measurement,setting,value
COC(=O)CCC(=O)C(C#N)c1ccc(Cl)cc1Cl (stereo not given),GI50,786-0,> 100 µM (inactive)
same,GI50,A549,> 100 µM (inactive)
same,GI50,ACHN,> 100 µM (inactive)
same,GI50,CAKI-1,> 100 µM (inactive)
same,GI50,CCRF-CEM,> 100 µM (inactive)
same,GI50,DLD-1,> 100 µM (inactive)
same,GI50,DMS-273,> 100 µM (inactive)
same,GI50,EKVX,> 100 µM (inactive)
same,GI50,HCT-116,> 100 µM (inactive)
same,GI50,HCT-15,> 100 µM
same,GI50,HL-60,> 100 µM (inactive)
same,GI50,HOP-92,> 100 µM (inactive)
same,GI50,HT-29,4.97 µM (inactive)
same,GI50,IGROV-1,> 100 µM (inactive)
same,GI50,K562,> 100 µM (inactive)
same,GI50,KM-20L2,> 100 µM (inactive)
same,GI50,KM12,> 100 µM (inactive)
same,GI50,LOX IMVI,> 100 µM (inactive)
same,GI50,LXFL 529,> 100 µM (inactive)
same,GI50,M14,> 100 µM (inactive)
same,GI50,M19-MEL,> 100 µM (inactive)
same,GI50,MOLT-4,> 100 µM (inactive)
same,GI50,Malme-3M,> 100 µM (inactive)
same,GI50,NCI-H226,> 100 µM (inactive)
same,GI50,NCI-H23,> 100 µM (inactive)
same,GI50,NCI-H522,> 100 µM (inactive)
same,GI50,OVCAR-3,> 100 µM (inactive)
same,GI50,RPMI-8226,> 100 µM (inactive)
same,GI50,RXF 631,> 100 µM (inactive)
same,GI50,SF-268,> 100 µM (inactive)
same,GI50,SF-295,> 100 µM (inactive)
same,GI50,SF-539,> 100 µM (inactive)
same,GI50,SK-MEL-28,> 100 µM (inactive)
same,GI50,SK-MEL-2,> 100 µM (inactive)
same,GI50,SK-OV-3,> 100 µM (inactive)
same,GI50,SN12C,> 100 µM (inactive)
same,GI50,SNB-19,> 100 µM (inactive)
same,GI50,SNB-75,> 100 µM (inactive)
same,GI50,SNB-78,> 100 µM (inactive)
same,GI50,SR,> 100 µM (inactive)
same,GI50,SW-620,> 100 µM (inactive)
same,GI50,TK-10,> 100 µM (inactive)
same,GI50,U-251,> 100 µM (inactive)
same,GI50,UACC-257,> 100 µM (inactive)
same,GI50,UACC-62,> 100 µM (inactive)
same,GI50,UO-31,> 100 µM (inactive)
same,GI50,XF498,> 100 µM (inactive)
CN1NC(c2ccccc2)=C(C#N)C(=O)CC1c1ccccc1Cl (stereo not given),GI50,786-0,> 100 µM (inactive)
same,GI50,A549,> 100 µM (inactive)
same,GI50,ACHN,> 100 µM (inactive)
same,GI50,CAKI-1,> 100 µM (inactive)
same,GI50,CCRF-CEM,> 100 µM (inactive)
same,GI50,COLO 205,> 100 µM (inactive)
same,GI50,DLD-1,61.4 µM (inactive)
same,GI50,DMS-114,> 100 µM (inactive)
same,GI50,DMS-273,> 100 µM (inactive)
same,GI50,HCC 2998,> 100 µM (inactive)
same,GI50,HCT-116,> 100 µM (inactive)
same,GI50,HCT-15,63.4 µM
same,GI50,HL-60,> 100 µM (inactive)
same,GI50,HOP-18,67.3 µM (inactive)
same,GI50,HOP-62,25.3 µM (inactive)
same,GI50,HOP-92,> 100 µM (inactive)
same,GI50,HT-29,> 100 µM (inactive)
same,GI50,KM12,> 100 µM (inactive)
same,GI50,LOX IMVI,> 100 µM (inactive)
same,GI50,LXFL 529,> 100 µM (inactive)
same,GI50,M14,> 100 µM (inactive)
same,GI50,MOLT-4,> 100 µM (inactive)
same,GI50,Malme-3M,> 100 µM (inactive)
same,GI50,NCI-H226,> 100 µM (inactive)
same,GI50,NCI-H23,> 100 µM (inactive)
same,GI50,NCI-H460,> 100 µM (inactive)
same,GI50,NCI-H522,65.2 µM (inactive)
same,GI50,OVCAR-4,> 100 µM (inactive)
same,GI50,OVCAR-5,> 100 µM (inactive)
same,GI50,RPMI-8226,> 100 µM (inactive)
same,GI50,RXF 393,> 100 µM (inactive)
same,GI50,RXF 631,> 100 µM (inactive)
same,GI50,SF-268,> 100 µM (inactive)
same,GI50,SF-295,> 100 µM (inactive)
same,GI50,SK-MEL-28,> 100 µM (inactive)
same,GI50,SK-MEL-2,> 100 µM (inactive)
same,GI50,SK-MEL-5,69.8 µM (inactive)
same,GI50,SK-OV-3,> 100 µM (inactive)
same,GI50,SN12C,> 100 µM (inactive)
same,GI50,SNB-19,> 100 µM (inactive)
same,GI50,SNB-75,86.3 µM (inactive)
same,GI50,SNB-78,> 100 µM (inactive)
same,GI50,SR,> 100 µM (inactive)
same,GI50,SW-620,> 100 µM (inactive)
same,GI50,TK-10,> 100 µM (inactive)
same,GI50,U-251,> 100 µM (inactive)
same,GI50,UACC-257,> 100 µM (inactive)
same,GI50,XF498,> 100 µM (inactive)
COc1cc(-c2cc(-c3cc([N+](=O)[O-])c(/C=N/NC(=O)c4ccncc4)o3)ccc2OC)ccc1C,GI50,786-0,> 100 µM (inactive)
same,GI50,A498,> 100 µM (inactive)
same,GI50,A549,> 100 µM (inactive)
same,GI50,ACHN,> 100 µM (inactive)
same,GI50,CAKI-1,> 100 µM (inactive)
same,GI50,CCRF-CEM,> 10 µM (inactive)
same,GI50,COLO 205,> 100 µM (inactive)
same,GI50,DLD-1,> 100 µM (inactive)
same,GI50,EKVX,> 100 µM (inactive)
same,GI50,HCC 2998,> 100 µM (inactive)
same,GI50,HL-60,> 10 µM (inactive)
same,GI50,HOP-62,> 100 µM (inactive)
same,GI50,HOP-92,> 100 µM (inactive)
same,GI50,HT-29,> 100 µM (inactive)
same,GI50,IGROV-1,> 100 µM (inactive)
same,GI50,K562,> 100 µM (inactive)
same,GI50,KM-20L2,> 100 µM (inactive)
same,GI50,LOX IMVI,> 100 µM (inactive)
same,GI50,LXFL 529,> 100 µM (inactive)
same,GI50,M14,> 100 µM (inactive)
same,GI50,M19-MEL,> 100 µM (inactive)
same,GI50,Malme-3M,> 100 µM (inactive)
same,GI50,NCI-H226,> 100 µM (inactive)
same,GI50,NCI-H23,> 100 µM (inactive)
same,GI50,NCI-H522,> 100 µM (inactive)
same,GI50,OVCAR-3,> 100 µM (inactive)
same,GI50,OVCAR-4,> 100 µM (inactive)
same,GI50,OVCAR-5,> 100 µM (inactive)
same,GI50,RPMI-8226,> 100 µM (inactive)
same,GI50,RXF 393,> 100 µM (inactive)
same,GI50,RXF 631,> 100 µM (inactive)
same,GI50,SF-268,> 100 µM (inactive)
same,GI50,SF-295,> 100 µM (inactive)
same,GI50,SF-539,> 100 µM (inactive)
same,GI50,SK-MEL-28,> 100 µM (inactive)
same,GI50,SK-MEL-2,> 100 µM (inactive)
same,GI50,SK-OV-3,> 100 µM (inactive)
same,GI50,SN12C,> 100 µM (inactive)
same,GI50,SNB-19,> 100 µM (inactive)
same,GI50,SNB-75,> 100 µM (inactive)
same,GI50,SW-620,> 100 µM (inactive)
same,GI50,TK-10,> 100 µM (inactive)
same,GI50,UACC-257,> 100 µM (inactive)
same,GI50,UACC-62,> 100 µM (inactive)
same,GI50,XF498,> 100 µM (inactive)
Cc1c(NC(=O)C(C)(C)Br)c(=O)oc2c(C)c3occc(=O)c3cc12,GI50,786-0,53.7 µM (inactive)
same,GI50,A498,18.1 µM (inactive)
same,GI50,A549,68.5 µM (inactive)
same,GI50,ACHN,45.8 µM (inactive)
same,GI50,CCRF-CEM,28.2 µM (inactive)
same,GI50,COLO 205,> 100 µM (inactive)
same,GI50,DLD-1,59 µM (inactive)
same,GI50,DMS-114,44.1 µM (inactive)
same,GI50,DMS-273,77.3 µM (inactive)
same,GI50,EKVX,> 100 µM (inactive)
same,GI50,HCC 2998,> 100 µM (inactive)
same,GI50,HCT-116,59.4 µM (inactive)
same,GI50,HCT-15,96.6 µM
same,GI50,HL-60,> 100 µM (inactive)
same,GI50,HOP-62,29.6 µM (inactive)
same,GI50,HT-29,90.2 µM (inactive)
same,GI50,IGROV-1,57 µM (inactive)
same,GI50,K562,64.3 µM (inactive)
same,GI50,KM-20L2,41.4 µM (inactive)
same,GI50,LOX IMVI,76.9 µM (inactive)
same,GI50,LXFL 529,42.9 µM (inactive)
same,GI50,M14,48.9 µM (inactive)
same,GI50,MOLT-4,37.1 µM (inactive)
same,GI50,Malme-3M,31.1 µM (inactive)
same,GI50,NCI-H226,23.3 µM (inactive)
same,GI50,NCI-H23,81.5 µM (inactive)
same,GI50,NCI-H460,58.9 µM (inactive)
same,GI50,OVCAR-3,> 100 µM (inactive)
same,GI50,OVCAR-4,49.8 µM (inactive)
same,GI50,OVCAR-8,55 µM (inactive)
same,GI50,RPMI-8226,45.3 µM (inactive)
same,GI50,RXF 393,55.3 µM (inactive)
same,GI50,RXF 631,48.1 µM (inactive)
same,GI50,SF-268,64.9 µM (inactive)
same,GI50,SF-295,22.9 µM (inactive)
same,GI50,SF-539,43.7 µM (inactive)
same,GI50,SK-MEL-28,> 100 µM (inactive)
same,GI50,SK-MEL-2,59.6 µM (inactive)
same,GI50,SK-MEL-5,29.7 µM (inactive)
same,GI50,SN12C,52.4 µM (inactive)
same,GI50,SNB-19,87.9 µM (inactive)
same,GI50,SNB-75,35.7 µM (inactive)
same,GI50,SR,43 µM (inactive)
same,GI50,SW-620,> 100 µM (inactive)
same,GI50,TK-10,> 100 µM (inactive)
same,GI50,U-251,72.9 µM (inactive)
same,GI50,UACC-257,> 100 µM (inactive)
same,GI50,UACC-62,67.5 µM (inactive)
same,GI50,UO-31,21.3 µM (inactive)
same,GI50,XF498,27.3 µM (inactive)
